Data: patent US20230241017A1, “Hydrophilic Degradable Microsphere for Delivering Travoprost” (Occlugel, priority 2020, published 2023)
Marks after values point to notes of the source that are not given here.

What was measured:
[1] = Extemporaneous loading of latanoprost and latanoprostene BUNOD on sterile MS5; type: physicochemical; settings: for Drug loading on MS5: extemporaneous loading on freeze-dried e-beam sterilized MS5, 5 min room temperature; for loading efficiencies (%) on MS5: extemporaneous loading on sterile MS5, 5 min room temperature
Procedure: After the sieving step of MS5, 100 μL or 250 μL of pellets were suspended in 5 mL of a solution containing 2.5% (w/v) of mannitol. After homogenization, the pellets of microspheres were recovered, frozen-dried and sterilized by e-beam radiation (25 kilograys).
Latanoprost Loading To the dry and sterile pellets of microspheres (250 μL), 500 μL of latanoprost solution (TRC-L177280-10MG) at 2 mg/mL in acetonitrile/water mixture (70/30) were added. After 5 min of mixing at room temperature under stirring on a tube rotator (=30 rpm), the supernatants were removed for the measurement of unbound latanoprost by RP-HPLC at 210 nm on a C18 column (46×150 mm) using a mobile phase made of acetonitrile/water containing 0.1% TFA (60:40, v/v) at a flow rate of 1 mL/min in the isocratic mode at 25° C. The amount of latanoprost in supernatants was obtained by extrapolation from a standard curve (0.5 to 20 μg/mL). The loaded dose was calculated by subtracting the final amount of latanoprost from the initial amount. The latanoprost loading for 1 mL of beads was obtained by multiplying by 4 the quantity loaded on 250 μL of MS.
Latanoprostene BUNOD is a nitric oxide (NO)-donating prostaglandin F2a analogue approved for the reduction of intraocular pressure in patients with open-angle glaucoma or ocular hypertension. To the dry and sterile pellets of microspheres (100 μL), 700 μL of latanoprotene BUNOD (TRC-L177335-2.5MG) solution at 1 mg/mL in acetonitrile/water mixture (70/30%) were added. After 5 min of mixing at room temperature under stirring on a tube rotator (=30 rpm), the supernatants were removed for the measurement of unbound drug by RP-HPLC at 210 nm on a C18 column (46×150 mm) using a mobile phase made of acetonitrile/water containing 0.1% TFA (60:40, v/v) at a flow rate of 1 mL/min in the isocratic mode at 25° C. The amount of latanoprotene BUNOD in supernatants was obtained by extrapolation from a standard curve (0.25 to 25 μg/mL). The loaded dose was calculated by subtracting the final amount of latanoprotene BUNOD from the initial amount. The latanoprotene BUNOD loading for 1 mL of beads was obtained by multiplying by 10 the quantity loaded on 100 μL of MS.

[2] = In vitro release of latanoprost and latanoprostene BUNOD in PBS after extemporaneous loading on MS5; type: physicochemical; settings: for elution after 5 weeks of incubation: loaded on MS5, PBS 37 °C (FIG. 9); for % of prostaglandin analogues release after 10 min in PBS / % of prostaglandin analogues release after 1 day in PBS / % of prostaglandin analogues release after 7 days in PBS / % of prostaglandin analogues release after 18 days in PBS: loaded on sterile MS5, PBS pH 7.4, 37 °C
Procedure: Then, immediately after the loading step, 50 mL of PBS (Sigma P-5368; 10 mM phosphate buffered saline; NaCl 0,136 M; KCl 0,0027 M; pH 7.4) was added to the microspheres loaded with latanoprost or latanoprostene BUNOD for the in vitro drug release (37° C., 150 rpm). The medium was completely renewed after each sample collection (10 min, 2 h, 24 h and every 3-4 days during 5 weeks). The amounts of prostaglandin analogues in PBS supernatants were determined by RP-HPLC at 210 nm for latanoprost and latanoprostene BUNOD on a C18 column (46×150 mm) using a mobile phase made of acetonitrile/water containing 0.1% TFA (60:40, v/v) at a flow rate of 1 mL/min in the isocratic mode at 25° C. The results are summarized in Table 7 and in FIG. 9 for each drug.

[3] = pubchem.ncbi.nlm.nih.gov; cited from earlier work
[4] = In vitro release of travoprost in PBS after extemporaneous loading; type: physicochemical; settings: from MS5 after extemporaneous loading; PBS 37 °C (FIG. 7)
Procedure: Then, PBS (50 mL) was added to the microspheres loaded with travoprost for the in vitro drug release experiment (37° C., 150 rpm). The medium was completely renewed after each sample collection. The amounts of travoprost in PBS supernatants were determined by RP-HPLC at 222 nm on a C18 column (46×150 mm) using a mobile phase made of acetonitrile/water containing 0.1% TFA (60:40, v/v) at a flow rate of 1 mL/min in the isocratic mode at 25° C.

Row | Drug loading on MS5 [1] [mg/mL] | loading efficiencies (%) on MS5 [1] | elution after 5 weeks of incubation [2] | % of prostaglandin analogues release after 10 min in PBS [2] [%] | % of prostaglandin analogues release after 1 day in PBS [2] [%] | % of prostaglandin analogues release after 7 days in PBS [2] [%] | % of prostaglandin analogues release after 18 days in PBS [2] [%] | amount of drug loaded on the degradable microsphere MS5 ([1]; extemporaneous loading on sterile MS5) | duration of sustained travoprost release [4] | initial burst release of travoprost [4] [%] | Structure (SMILES) | Partition coefficient P (Log P) of the prostaglandin analogues [3]
1 | 3.83 ± 0.07 | (98%)** | practically complete | 8.7 ± 0.5 | 42.3 ± 10 | 59.7 ± 11.1 | 77.5 ± 11.9 |  |  |  | CC(C)OC(=O)CCC/C=C\C[C@@H]1[C@@H](CC[C@@H](O)CCc2ccccc2)[C@H](O)C[C@@H]1O [Latanoprost] | 
2 | 6.58 ± 0.1 | (94%) | practically complete | 7.04 ± 2.2 | 32.4 ± 4.1 | 45.2 ± 4.5 | 60 ± 6.2 | at least 6.5 mg |  |  | O=C(CCC/C=C\C[C@@H]1[C@@H](CC[C@@H](O)CCc2ccccc2)[C@H](O)C[C@@H]1O)OCCCCO[N+](=O)[O-] [Latanoprostene BUNOD] | 3.79-3.94
3 |  |  |  |  |  |  |  |  | at least two months | 3.5 | CC(C)OC(=O)CCC/C=C\C[C@@H]1[C@@H](/C=C/[C@@H](O)COc2cccc(C(F)(F)F)c2)[C@H](O)C[C@@H]1O [travoprost] | 
